Reference: ChEMBL document CHEMBL4376864, “Binding Loop Substitutions in the Cyclic Peptide SFTI-1 Generate Potent and Selective Chymase Inhibitors” (J Med Chem, 2020)
Values belong to the compound of their own block, whether it stands above or below them. Bridge positions count the residues as written; N and C are the ends. Square brackets hold non-standard residues; d marks the D form. Peptide text beside a SMILES is read from it. * marks the point of attachment. Phe(4-NO2) = N[C@@H](Cc1ccc([N+](=O)[O-])cc1)C(=O)O; Phe(4-tBu) = CC(C)(C)c1ccc(C[C@H](N)C(=O)O)cc1; Bip = N[C@@H](Cc1ccc(-c2ccccc2)cc1)C(=O)O; pNA = O=[N+]([O-])c1ccc(N*)cc1; Nle = CCCC[C@H](N)C(=O)O

Key:
Chymase [1] = molecular target: T1, Chymase (Homo sapiens, UniProt P23946); assay: Inhibition of recombinant human chymase expressed in Pichia pastoris X-33 cells using NleTDY-pNA as substrate assessed as cleavage of pNA at pH 7.2 and 298 K by spectrophotometry analysis
T1 sequence (P23946 whole entry): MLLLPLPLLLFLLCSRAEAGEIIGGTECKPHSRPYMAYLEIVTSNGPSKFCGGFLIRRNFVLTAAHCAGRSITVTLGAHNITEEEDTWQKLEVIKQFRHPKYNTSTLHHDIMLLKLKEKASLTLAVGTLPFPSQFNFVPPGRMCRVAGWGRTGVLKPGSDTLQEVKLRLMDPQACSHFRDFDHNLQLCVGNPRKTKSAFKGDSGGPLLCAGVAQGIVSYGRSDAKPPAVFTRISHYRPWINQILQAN

Chymase [2] = molecular target: T1, Chymase; assay: Substrate activity at recombinant human chymase expressed in Pichia pastoris X-33 cells assessed as Kcat by spectrophotometry analysis; format: ADME
Chymase [3] = molecular target: T1, Chymase; assay: Substrate activity at recombinant human chymase expressed in Pichia pastoris X-33 cells assessed as Km by spectrophotometry analysis; format: ADME
Chymase [4] = molecular target: T1, Chymase; assay: Substrate activity at recombinant human chymase expressed in Pichia pastoris X-33 cells assessed as ratio of Kcat/Km by spectrophotometry analysis; format: ADME
Chymotrypsin = Chymotrypsin (Homo sapiens, UniProt Q99895+P17538+P40313+Q6GPI1); assay: Inhibition of human chymotrypsin using Suc-AAPF-MCA as substrate at pH 8 and 298 K measured every 60 secs for 600 secs; format: protein assay
Cathepsin G = molecular target: T2, Cathepsin G (Homo sapiens, UniProt P08311); assay: Inhibition of human cathepsin G using Suc-AAPF-MCA as substrate at pH 7.2 and 298 K measured every 60 secs for 600 secs
T2 sequence (P08311 whole entry): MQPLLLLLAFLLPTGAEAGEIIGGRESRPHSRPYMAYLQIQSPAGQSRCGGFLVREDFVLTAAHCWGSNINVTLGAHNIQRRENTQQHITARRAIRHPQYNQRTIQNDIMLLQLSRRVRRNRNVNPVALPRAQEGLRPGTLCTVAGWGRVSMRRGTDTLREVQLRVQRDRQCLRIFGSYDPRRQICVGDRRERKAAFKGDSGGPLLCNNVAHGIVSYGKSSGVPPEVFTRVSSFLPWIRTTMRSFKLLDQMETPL

Prothrombin = Prothrombin (Homo sapiens, UniProt P00734); assay: Inhibition of human thrombin using Boc-VPR-MCA as substrate at pH 8 and 298 K measured every 60 secs for 600 secs
Neutrophil elastase = molecular target: T3, Neutrophil elastase (Homo sapiens, UniProt P08246); assay: Inhibition of human neutrophil elastase using MeOSuc-AAPV-MCA as substrate at pH 7.2 and 298 K measured every 60 secs for 600 secs
T3 sequence (P08246 whole entry): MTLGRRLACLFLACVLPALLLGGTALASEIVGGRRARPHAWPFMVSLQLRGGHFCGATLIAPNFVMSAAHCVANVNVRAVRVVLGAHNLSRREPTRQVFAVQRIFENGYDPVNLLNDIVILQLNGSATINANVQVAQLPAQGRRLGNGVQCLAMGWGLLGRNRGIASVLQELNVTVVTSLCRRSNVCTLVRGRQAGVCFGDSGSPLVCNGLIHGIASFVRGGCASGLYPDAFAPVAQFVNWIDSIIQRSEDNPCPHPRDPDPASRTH

Homo sapiens = organism: Homo sapiens; assay: Selectivity index, ratio of Ki for human cathepsin G using Suc-AAPF-MCA as substrate to Ki for recombinant human chymase expressed in Pichia pastoris X-33 cells using NleTDY-pNA as substrate
Coagulation factor XII = molecular target: T4, Coagulation factor XII (Homo sapiens, UniProt P00748); assay: Inhibition of human coagulation factor 12a using Ac-QRFR-pNA as substrate at pH 8 and 298 K measured every 60 secs for 600 secs
T4 sequence (P00748 whole entry): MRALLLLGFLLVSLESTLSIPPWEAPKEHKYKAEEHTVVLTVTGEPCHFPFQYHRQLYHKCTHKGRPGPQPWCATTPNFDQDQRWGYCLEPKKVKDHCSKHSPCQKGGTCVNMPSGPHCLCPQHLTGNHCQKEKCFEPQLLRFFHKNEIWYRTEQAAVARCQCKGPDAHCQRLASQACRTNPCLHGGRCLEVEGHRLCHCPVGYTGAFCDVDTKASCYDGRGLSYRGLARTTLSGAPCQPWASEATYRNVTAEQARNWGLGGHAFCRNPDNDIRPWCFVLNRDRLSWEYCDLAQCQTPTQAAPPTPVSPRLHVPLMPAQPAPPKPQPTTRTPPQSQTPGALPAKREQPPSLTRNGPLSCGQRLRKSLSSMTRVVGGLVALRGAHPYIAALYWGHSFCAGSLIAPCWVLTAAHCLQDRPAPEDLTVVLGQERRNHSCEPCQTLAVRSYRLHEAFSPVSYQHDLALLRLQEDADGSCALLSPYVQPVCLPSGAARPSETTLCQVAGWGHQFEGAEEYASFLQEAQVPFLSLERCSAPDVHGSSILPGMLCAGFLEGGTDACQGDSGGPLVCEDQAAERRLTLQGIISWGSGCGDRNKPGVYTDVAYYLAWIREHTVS

Kallikrein-7 = Kallikrein-7 (Homo sapiens, UniProt P49862); assay: Inhibition of recombinant human KLK7 expressed in Pichia pastoris X-33 using KHLY-pNA as substrate at pH 8 and 298 K measured every 60 secs for 600 secs
Sequence of Kallikrein-7 (P49862 whole entry): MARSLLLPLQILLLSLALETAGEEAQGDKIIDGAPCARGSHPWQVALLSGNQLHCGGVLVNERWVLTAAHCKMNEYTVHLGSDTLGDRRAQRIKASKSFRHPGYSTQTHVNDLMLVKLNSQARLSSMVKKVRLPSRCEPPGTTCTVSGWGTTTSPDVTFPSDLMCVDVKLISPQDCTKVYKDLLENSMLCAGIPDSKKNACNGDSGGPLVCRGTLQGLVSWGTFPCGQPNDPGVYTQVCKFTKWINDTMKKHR

[5] = Inhibition of human cationic trypsin using Boc-VPR-MCA as substrate at pH 8 and 298 K measured every 60 secs for 600 secs

SMILES: CC[C@H](C)[C@@H]1NC(=O)[C@@H]2CCCN2C(=O)[C@@H]2CCCN2C(=O)[C@H]([C@@H](C)CC)NC(=O)[C@H](CO)NC(=O)[C@H](CCCCN)NC(=O)[C@H]([C@@H](C)O)NC(=O)[C@@H]2CSSC[C@H](NC1=O)C(=O)N[C@@H](Cc1ccccc1)C(=O)N1CCC[C@H]1C(=O)N[C@@H](CC(=O)O)C(=O)NCC(=O)N[C@@H](CCCNC(=N)N)C(=O)N2
IC50 (Chymase [1]): > 5000 nM

SMILES: C[C@@H](O)[C@H](NC(=O)[C@@H](N)Cc1ccccc1)C(=O)N[C@@H](CC(=O)O)C(=O)N[C@@H](Cc1ccc(O)cc1)C(=O)Nc1ccc([N+](=O)[O-])cc1 (H-FTDY-pNA)
Kcat (Chymase [2]): 14 s⁻¹ | Km (Chymase [3]): 370 µM | Kcat/Km (Chymase [4]): 3.8 ×10⁴ /M/s

SMILES: C[C@@H](O)[C@H](NC(=O)[C@H](CCC(=O)O)NC(=O)[C@@H](N)CCCNC(=N)N)C(=O)N[C@@H](Cc1ccc(O)cc1)C(=O)Nc1ccc([N+](=O)[O-])cc1 (H-RETY-pNA)
Kcat (Chymase [2]): 13 s⁻¹ | Km (Chymase [3]): 410 µM | Kcat/Km (Chymase [4]): 3.2 ×10⁴ /M/s

SMILES: C[C@@H](O)[C@H](NC(=O)[C@@H](NC(=O)[C@@H](N)CCCNC(=N)N)[C@@H](C)O)C(=O)N[C@@H](Cc1ccc(O)cc1)C(=O)Nc1ccc([N+](=O)[O-])cc1 (H-RTTY-pNA)
Kcat (Chymase [2]): 18 s⁻¹ | Km (Chymase [3]): 530 µM | Kcat/Km (Chymase [4]): 3.4 ×10⁴ /M/s

SMILES: CCCC[C@H](N)C(=O)N[C@H](C(=O)N[C@@H](CC(=O)O)C(=O)N[C@@H](Cc1ccc(O)cc1)C(=O)Nc1ccc([N+](=O)[O-])cc1)[C@@H](C)O (H-[Nle]TDY-pNA)
Kcat (Chymase [2]): 22 s⁻¹ | Km (Chymase [3]): 550 µM | Kcat/Km (Chymase [4]): 4 ×10⁴ /M/s

SMILES: CC[C@H](C)[C@@H]1NC(=O)[C@@H]2CCCN2C(=O)[C@@H]2CCCN2C(=O)[C@H](Cc2ccc(-c3ccccc3)cc2)NC(=O)[C@H](CO)NC(=O)[C@H](Cc2ccc(O)cc2)NC(=O)[C@H](C)NC(=O)[C@@H]2CSSC[C@H](NC1=O)C(=O)N[C@@H](Cc1ccccc1)C(=O)N1CCC[C@H]1C(=O)N[C@@H](CC(=O)O)C(=O)NCC(=O)N[C@@H](Cc1ccccc1)C(=O)N2 (cyclo(AYS[Bip]PPICFPDGFC); disulfide 8-14)
Ki (Chymotrypsin): 1.5 nM | Ki (Cathepsin G): 7.4 nM

SMILES: N=C(N)NCCC[C@@H]1NC(=O)CNC(=O)[C@H](CC(=O)O)NC(=O)[C@@H]2CCCN2C(=O)[C@H](Cc2ccccc2)NC(=O)[C@@H]2CSSC[C@H](NC1=O)C(=O)N[C@@H](CCC(N)=O)C(=O)N[C@@H](Cc1ccc([N+](=O)[O-])cc1)C(=O)N[C@@H](CO)C(=O)N[C@@H](CCC(=O)O)C(=O)N1CCC[C@H]1C(=O)N1CCC[C@H]1C(=O)N[C@@H](CCC(=O)O)C(=O)N2 (cyclo(CFPDGRCQ[Phe(4-NO2)]SEPPE); disulfide 1-7)
IC50 (Prothrombin): > 10000 nM | Ki (Chymotrypsin): 920 nM | IC50 (Neutrophil elastase): > 10000 nM | Ratio Ki (Homo sapiens): 96 | IC50 (Coagulation factor XII): > 10000 nM | IC50 (Kallikrein-7): > 10000 nM | Ki (Cathepsin G): 5200 nM | IC50 [5]: > 10000 nM | Ki (Chymase [1]): 54 nM

SMILES: CC(C)(C)c1ccc(C[C@@H]2NC(=O)[C@H](CCC(N)=O)NC(=O)[C@@H]3CSSC[C@H](NC(=O)[C@H](CCC(=O)O)NC(=O)[C@@H]4CCCN4C(=O)[C@@H]4CCCN4C(=O)[C@H](CCC(=O)O)NC(=O)[C@H](CO)NC2=O)C(=O)N[C@@H](Cc2ccccc2)C(=O)N2CCC[C@H]2C(=O)N[C@@H](CC(=O)O)C(=O)NCC(=O)N[C@@H](CCCNC(=N)N)C(=O)N3)cc1 (cyclo(CFPDGRCQ[Phe(4-tBu)]SEPPE); disulfide 1-7)
IC50 (Chymase [1]): > 10000 nM

SMILES: C[C@@H](O)[C@@H]1NC(=O)[C@@H]2CSSC[C@H](NC(=O)[C@H](CCC(=O)O)NC(=O)[C@@H]3CCCN3C(=O)[C@@H]3CCCN3C(=O)[C@H](CCC(=O)O)NC(=O)[C@H](CO)NC(=O)[C@H](Cc3ccc(O)cc3)NC1=O)C(=O)N[C@@H](Cc1ccccc1)C(=O)N1CCC[C@H]1C(=O)N[C@@H](CC(=O)O)C(=O)NCC(=O)N[C@@H](CCCNC(=N)N)C(=O)N2 (cyclo(CFPDGRCTYSEPPE); disulfide 1-7)
Ki (Chymotrypsin): 11 nM | Ki (Cathepsin G): 14 nM

Continued, values first:

Ki (Chymotrypsin): 0.42 nM | Ki (Cathepsin G): < 0.1 nM
SMILES: CC[C@H](C)[C@@H]1NC(=O)[C@@H]2CCCN2C(=O)[C@@H]2CCCN2C(=O)[C@H](CCC(=O)O)NC(=O)[C@H](CO)NC(=O)[C@H](Cc2ccc(O)cc2)NC(=O)[C@H](C)NC(=O)[C@@H]2CSSC[C@H](NC1=O)C(=O)N[C@@H](Cc1ccccc1)C(=O)N1CCC[C@H]1C(=O)N[C@@H](CC(=O)O)C(=O)NCC(=O)N[C@@H](Cc1ccccc1)C(=O)N2 (cyclo(AYSEPPICFPDGFC); disulfide 8-14)

IC50 (Chymase [1]): > 5000 nM
SMILES: CC[C@H](C)[C@@H]1NC(=O)[C@@H]2CCCN2C(=O)[C@@H]2CCCN2C(=O)[C@H]([C@@H](C)CC)NC(=O)[C@H](CO)NC(=O)[C@H](Cc2ccc(O)cc2)NC(=O)[C@H](CC(=O)O)NC(=O)[C@@H]2CSSC[C@H](NC1=O)C(=O)N[C@@H](Cc1ccccc1)C(=O)N1CCC[C@H]1C(=O)N[C@@H](CC(=O)O)C(=O)NCC(=O)N[C@@H](Cc1ccccc1)C(=O)N2 (cyclo(CDYSIPPICFPDGF); disulfide 1-9)

IC50 (Chymase [1]): > 5000 nM
SMILES: CCCC[C@@H]1NC(=O)CNC(=O)[C@H](CC(=O)O)NC(=O)[C@@H]2CCCN2C(=O)[C@H](Cc2ccccc2)NC(=O)[C@@H]2CSSC[C@H](NC1=O)C(=O)N[C@@H](CC(=O)O)C(=O)N[C@@H](Cc1ccc(O)cc1)C(=O)N[C@@H](CO)C(=O)N[C@@H]([C@@H](C)CC)C(=O)N1CCC[C@H]1C(=O)N1CCC[C@H]1C(=O)N[C@@H]([C@@H](C)CC)C(=O)N2 (cyclo(CDYSIPPICFPDG[Nle]); disulfide 1-9)

Ki (Chymotrypsin): 150 nM | Ki (Cathepsin G): 0.26 nM
SMILES: CC[C@H](C)[C@@H]1NC(=O)[C@@H]2CCCN2C(=O)[C@@H]2CCCN2C(=O)[C@H](CCC(=O)O)NC(=O)[C@H](CO)NC(=O)[C@H](Cc2ccc(O)cc2)NC(=O)[C@H](CCC(N)=O)NC(=O)[C@@H]2CSSC[C@H](NC1=O)C(=O)N[C@@H](Cc1ccccc1)C(=O)N1CCC[C@H]1C(=O)N[C@@H](CC(=O)O)C(=O)NCC(=O)N[C@@H](CCCNC(=N)N)C(=O)N2 (cyclo(CFPDGRCQYSEPPI); disulfide 1-7)

Ki (Chymotrypsin): 0.88 nM | Ki (Cathepsin G): 8.2 nM
SMILES: CC[C@H](C)[C@@H]1NC(=O)[C@@H]2CCCN2C(=O)[C@@H]2CCCN2C(=O)[C@H](CCC(=O)O)NC(=O)[C@H](CO)NC(=O)[C@H](Cc2ccc(O)cc2)NC(=O)[C@H]([C@@H](C)O)NC(=O)[C@@H]2CSSC[C@H](NC1=O)C(=O)N[C@@H](Cc1ccccc1)C(=O)N1CCC[C@H]1C(=O)N[C@@H](CC(=O)O)C(=O)NCC(=O)N[C@@H](CCCNC(=N)N)C(=O)N2 (cyclo(CFPDGRCTYSEPPI); disulfide 1-7)
